Laboratory results as given in PubChem BioAssay (NCI).
“And” between values parts separate entries of the source, which are not always exact repeats. Equal entries are not always repeated.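 Tested at 5 concentrations; 48 h exposure; 96-well plates; endpoints linearly interpolated, else capped at highest concentration. GI50 marks 50% less growth. TGI: concentration producing complete growth inhibition.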

Tested on: MDA-MB-468 breast
Test: NCI-60 cell line screen, 48 h

Compound	GI50	TGI
CN1CCN(c2ccc(Nc3nc(N)c(C(=O)c4ccc5c(c4)OCCO5)s3)cc2)CC1	5.56 µM	> 17.6 µM
CCCCCCCCCCCCCCCC[N+](C)(CCO)Cc1cnc[nH]1 (stereo not drawn)	0.396 µM	10.1 µM
C[C@@H]1Cc2c([nH]c3ccccc23)[C@@H](c2c(F)cc(NC3CN(CCCF)C3)cc2F)N1CC(F)(F)CO	1.95 µM	4.86 µM
O=C(/C=C/C=C/c1c(C2CC2)nc2ccccc2c1-c1ccc(F)cc1)c1cccs1	2.75 µM	> 100 µM
CS(=O)(=O)Nc1cccc(-c2cc(-c3ccccc3Cl)c(C#N)c(N)n2)c1	1.19 µM	7.75 µM
Cc1nccc2c3ccc(OCc4cn(-c5ccc(Cl)cc5)nn4)cc3n(CCCc3ccccc3)c12	6.07 µM	19.1 µM
Nc1ncnc2c1c(-c1cccc(OCc3ccccc3)c1)cn2C1CC(CN2CCC2)C1 (stereo not drawn)	1.96 µM and 2.14 µM	5.98 µM and 8.79 µM
CN(C)C/C=C/C(=O)Nc1cc2c(Nc3ccc(F)c(Cl)c3F)ncnc2cc1OCCOC(F)F	< 0.01 µM	–
CC(=O)N1c2ccccc2NC2=C(C(=O)N(Cc3ccccc3)C2(C)C)C1c1ccco1 (stereo not drawn)	0.0897 µM	> 25 µM
N#CSc1c[nH]c2ccc(/C=C/C(=O)/C=C(/C=C/c3ccc4[nH]cc(SC#N)c4c3)OB(F)F)cc12	0.91 µM	4.09 µM
Oc1cccc2ccc(-c3nnc(SCc4ccc(O)c5ncccc45)n3-c3ccccc3)nc12	0.813 µM	9.52 µM
COc1cc(Nc2ncc(F)c(Nc3ccc4c(n3)NC(=O)C(C)(C)O4)n2)cc(OC)c1OC	8.5 µM and 4.91 µM	> 100 µM
Fc1ccc(-c2ncn(C3CCNCC3)c2-c2ccnc(Oc3ccc(F)c(F)c3)n2)cc1	2.34 µM	5.86 µM
CCC(=C(c1ccc(OCCN(C)C)cc1)c1ccc(OCCN(C)C)cc1)c1ccc(Cl)cc1	2.95 µM	6.7 µM
CN(C)c1ncc(-c2ccc(C(F)(F)F)cc2)c(NC2CCCCCC2)n1	14.3 µM	37.1 µM
CCN(CC)c1ccc2c(c1)Oc1nc(N)c(C#N)c(N)c1C2Sc1ccc(OC)cc1 (stereo not drawn)	1.85 µM	3.51 µM
N#CC(C#N)N=Nc1ccc(Br)cc1	1.01 µM	5.1 µM
CCCCCCCCCc1cc[n+](CC(=O)c2ccc([N+](=O)[O-])cc2)cc1	0.446 µM	1.75 µM
CCCc1cc2cc(-n3nc(CC)c4c3CC(C)(C)CC4=O)cc(NC3CCC(O)CC3)c2c(=O)[nH]1 (stereo not drawn)	0.212 µM	> 100 µM
O=[N+]([O-])c1ccccc1NC1c2ccccc2Oc2ccccc21	2.21 µM	5.4 µM
Cc1cc(Nc2c3ccccc3nc3ccccc23)ccc1NS(C)(=O)=O	2.29 µM	8.81 µM
CC(C)CC(=O)Nc1n[nH]c2c1CN(C(=O)C1CCN(C)CC1)C2(C)C	1.13 µM	5.18 µM
